Entries after “also recorded” stand apart in the source; their conditions may differ. Where two headings read alike, the source gives them in different places. Ends that are not written are not given here.
How the values were obtained:
[1] = system: lhβ expression by eel pituitary cells; details: eel pituitary cells in primary culture; cited from earlier work
Text: In the eel, three Kiss receptor genes have been characterized, i.e., KissR-1, KissR-2, and KissR-3 ([19], [22]–[24]). Their expressions mainly occur in the brain, pituitary, and gonads ([19]).

[2] = system: fshβ expression by eel pituitary cells; details: eel pituitary cells in primary culture; cited from earlier work
type II gnrh-r = details: repeated injections, juvenile female Japanese quail; cited from earlier work
Text: (§1) This receptor is the one increased during experimental maturation in both female and male eels ([25]). To the best of our knowledge, only a single other study investigated the effect of kisspeptin on GnRH receptor in teleost. In female striped bass at dummy run phase (ovarian development is initiated but not completed), chronic administration in vivo of both Kp1(15) and Kp2(12) induces a decrease ...

human KissR-1 [3] = system: human KissR-1; parameters: method as in PMID 19164475; details: CV-1 cells; cited from earlier work
KissR-2 = details: cited from earlier work
Text: (§2) For clarity, the nomenclature of Pasquier et al ([19], [24]) for KissR will be used in the following paragraphs. In teleost models with two receptors, various studies have shown differential affinities of Kiss peptides toward homologous receptors.

KissR-3 = details: cited from earlier work
Text: as §2

FSH gene transcription = details: striped bass; cited from earlier work
Text: (§3) This paradoxical inhibitory effect contrasts with the general action of kisspeptin as an activator of puberty and reproduction, mostly at the brain level ([70]), but also directly on the pituitary [for reviews see Ref. ([71], [72])]. […] In contrast, in other studied teleosts, the action of kisspeptin is generally ...

FSH peptide secretion = details: striped bass; cited from earlier work
Text: as §3

lh expression = details: cited from earlier work
Text: as §3

plasma LH levels = details: striped bass, im, cited from earlier work
Text: as §3

pituitary gnrh-r mRNAs = details: female striped bass at dummy run phase, chronic administration in vivo; cited from earlier work
Text: as §1

human KissR-1 [4] = system: human KissR-1; parameters: method as in PMID 26047834; details: CHO cells; cited from earlier work
mouse KissR-1 = system: mouse KissR-1; parameters: method as in PMID 26047834; details: CHO cells; cited from earlier work
LH secretion = details: im injection, prepubertal and adult sea bass; Kp2(10) versus Kp1(10); cited from earlier work
Text: as §3

LH release = details: cited from earlier work
Text: as §3

rat KissR-1 = target: T1, rat KissR-1 (Rattus norvegicus, UniProt Q924U1); assay: [Ca^2+]i response (Fluo-4 AM, FlexStation) in rat KissR-1-transfected CHO-K1 cells; type: cell-based; details: rat KissR-1 CHO-K1 cells, peak Fluo-4 fluorescence, 10^−12 to 10^−6 M, 37°C, four-parameter logistic, mean ± SEM from two independent experiments; for Emax: baseline normalized to 100%, 180 s recording
T1 construct: expressed in transfected cells
T1 sequence (Q924U1 whole entry): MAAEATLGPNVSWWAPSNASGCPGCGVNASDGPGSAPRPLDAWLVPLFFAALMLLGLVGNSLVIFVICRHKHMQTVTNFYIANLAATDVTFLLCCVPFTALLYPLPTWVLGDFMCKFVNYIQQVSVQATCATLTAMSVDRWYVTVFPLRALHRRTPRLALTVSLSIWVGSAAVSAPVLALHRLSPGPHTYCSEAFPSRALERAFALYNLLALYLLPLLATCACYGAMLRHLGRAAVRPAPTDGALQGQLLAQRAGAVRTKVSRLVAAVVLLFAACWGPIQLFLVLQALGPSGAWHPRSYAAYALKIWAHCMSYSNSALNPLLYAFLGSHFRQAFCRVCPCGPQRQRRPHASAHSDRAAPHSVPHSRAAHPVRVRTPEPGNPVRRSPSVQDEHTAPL
Protocol: CHO-K1 cells were cultured to semiconfluence in 12-well plates using Ham’s F12 medium supplemented with 10% fetal bovine serum and 1% antibiotic–antimycotic solution. Cells were transfected with different quantities of the recombinant plasmid, ranging from 3 to 5 µg, using Lipofectamine 2000 (Invitrogen, Cergy Pontoise, France) as previously described ([30]). Twenty-four hours after transfection, media were replaced by fresh F12 medium containing 1 mg/ml G418 (Geneticin; Life Technologies, Inc.). One week later, surviving cells were detached, diluted, and plated on 96-well plates at 0.7 cells/well. Monoclonal cell lines expressing rat KissR-1 (CHO-K1-rKissR-1) were followed daily by contrast phase microscopy. Seven independent monoclonal stable cell lines were obtained after a 3-week period of selection. By using qPCR, two cell lines were selected based on their expression levels being closest to physiological levels among all cell lines.
To compare the KissR-1 agonistic activities of eel Kp1(10), Kp2(10), Kp1(15), and Kp2(12), the level of [Ca^2+]i after stimulation of CHO-K1 cells stably expressing KissR-1 by these peptides was monitored by spectrofluorometry as previously described ([30], [31]) with slight modifications. Briefly, after 24 h in culture, cells were incubated for 1 h in a humidified incubator (37°C, 5% CO2) with 2 µM Fluo-4 acetoxymethyl ester (AM) calcium dye (Life Technologies, Saint Aubin, France) in Hank’s Buffer Saline Solution (HBSS; Life Technologies) buffered with 5 mM HEPES and supplemented with 2.5 mM probenecid (Sigma-Aldrich, Saint-Quentin Fallavier, France). Cells were washed twice with HBSS/HEPES/probenecid to remove Fluo-4 AM from the incubation medium and incubated in 150 µl of the same medium at 37°C for 15 min. Fluorescence was recorded using a Flexstation 3 fluorescence plate reader system (Molecular Devices, Saint-Grégoire, France) during 180 s with an excitation wavelength of 480 nm, an emission wavelength of 525 nm, and a cutoff filter of 515 nm. After 15 s recording in basal conditions, 50 µl of graded concentration (10^−12 to 10^−6 M) of different peptides (four-fold final concentration) was added to the incubation medium with the built-in eight-channel pipettor at a rate of 62 µl/s to assess their agonistic activity. After subtraction of mean fluorescence background from control wells without Fluo-4 AM, baseline was normalized to 100%, and fluorescence peak values were determined for each concentration of peptide. Potency (EC50) and efficacy (Emax) (Table 3) were determined with the Prism 6.0 software (GraphPad Software In., La Jolla, CA, USA) using a four-parameter logistic equation to fit peak fluorescence data.

[5] = system: LH release by pituitary cells; details: cited from earlier work
Text: as §3

[6] = system: expression of LH by pituitary cells; details: goldfish pituitary cells, mixed sexes at late stages of sexual regression; cited from earlier work
Text: as §3

human KissR-1 [7] = system: human KissR-1; parameters: method as in PMID 18509165; details: COS-7 cells; cited from earlier work
FSH release = details: sea bass; cited from earlier work
Text: as §3

[8] = striped bass, COS-7 cells, Kp1(15) versus Kp2(12)
[9] = zebrafish, COS-7, CHO-K1, and HEK293 cells
[10] = pituitary cells from sexually mature female goldfish
[11] = pituitary cells from mature male sea bass

YNWNSFGLRF [human/lamprey Kp1(10), heterologous kisspeptin]
effect on lhβ expression, heterologous kisspeptins [1]: can inhibit lhβ expression; also recorded: specific in vitro inhibitory effect
effect on fshβ expression, heterologous kisspeptins [2]: no effect on fshβ
effect on pituitary expression of type II gnrh-r (type II gnrh-r): upregulated pituitary expression of type II

QNVAYYNLNSFGLRY [zebrafish Kp1(15), heterologous kisspeptin]
effect on lhβ expression, heterologous kisspeptins [1]: can inhibit lhβ expression; also recorded: specific in vitro inhibitory effect
effect on fshβ expression, heterologous kisspeptins [2]: no effect on fshβ
activation of human KissR-1 (human KissR-1 [3]): highly efficient
preference for KissR-2 (KissR-2; zebrafish, CV-1 cells): preference for KissR-2

SKFNYNPFGLRF [zebrafish Kp2(12), zebrafish Kiss peptide]
activation of human KissR-1 (human KissR-1 [3]): highly efficient
potency for activating KissR-3 (KissR-3; zebrafish, CV-1 cells): higher potency for activating KissR-3

HQDMSSYNFNSFGLRY [chub mackerel Kp1(16), chub mackerel predicted mature peptide]
activity on KissR-3 (KissR-3; chub mackerel, Kp1(16) versus Kp1(15)): more active than the shorter Kp1(15)

human Kp1(14): heterologous kisspeptin (DLPNYNWNSFGLRF; ends and bridges not checked; UniProt Q15726 108-121, looked up)
effect on lhβ expression, heterologous kisspeptins [1]: can inhibit lhβ expression; also recorded: specific in vitro inhibitory effect
effect on fshβ expression, heterologous kisspeptins [2]: no effect on fshβ

QDVSSYNLNSFGLRY [striped bass Kp1(15), striped bass Kiss peptide]
activation of KissR-3 (KissR-3; [8]): activate KissR-3 with the same potency
effect on FSH gene transcription (FSH gene transcription): stimulate FSH
effect on FSH peptide secretion (FSH peptide secretion): stimulate FSH
effect on lh expression (lh expression; striped bass, in vitro): inhibitory effect on lh expression
effect on plasma LH levels (plasma LH levels; gonadal recrudescence): could increase LH levels at gonadal recrudescence
effect on plasma LH levels (plasma LH levels; overall): induces plasma LH levels in a stage-dependent manner
effect on plasma LH levels (plasma LH levels; pubertal stage): no effect on LH at pubertal stage
effect on pituitary gnrh-r mRNAs (pituitary gnrh-r mRNAs): induces a decrease of pituitary gnrh-r mRNAs

FNFNPFGLRF [sea bass Kp2(10), sea bass Kiss peptide]
activation of human KissR-1 (human KissR-1 [4]): can efficiently activate human KissR-1
activation of mouse KissR-1 (mouse KissR-1): not able to induce any activation
potency in inducing LH secretion (LH secretion): significantly more potent than Kp1(10) in inducing LH secretion

SKFNFNPFGLRF [striped bass Kp2(12), striped bass Kiss peptide]
activation of KissR-2 (KissR-2; striped bass, COS-7 cells, Kp2(12) versus Kp1(15)): more efficiently activated
activation of KissR-3 (KissR-3; [8]): activate KissR-3 with the same potency
effect on FSH gene transcription (FSH gene transcription): stimulate FSH
effect on FSH peptide secretion (FSH peptide secretion): stimulate FSH
effect on LH release (LH release; striped bass, in vitro): stimulated LH release
effect on plasma LH levels (plasma LH levels; gonadal recrudescence): could increase LH levels at gonadal recrudescence
effect on plasma LH levels (plasma LH levels; overall): induces plasma LH levels in a stage-dependent manner
effect on pituitary gnrh-r mRNAs (pituitary gnrh-r mRNAs): induces a decrease of pituitary gnrh-r mRNAs

FNYNPFGLRF [zebrafish Kp2(10), heterologous kisspeptin]
effect on lhβ expression, heterologous kisspeptins [1]: can inhibit lhβ expression; also recorded: specific in vitro inhibitory effect
effect on fshβ expression, heterologous kisspeptins [2]: no effect on fshβ
activation of human KissR-1 (human KissR-1 [3]): highly efficient
activation of KissR-2 (KissR-2; [9]): activated by both Kp1(10) and Kp2(10)

YNWNSFGLRY-NH2 [Eel Kp1(10)]
Emax (rat KissR-1): 236 ± 8.4%
EC50 (rat KissR-1): 8.5 ± 4.5 nM

YNLNSFGLRY [goldfish Kp1(10), homologous goldfish Kp1(10)]
effect on LH release ([5]; goldfish pituitary cells, mixed sexes at late stages of sexual regression): increases the release and expression of LH
effect on LH release [5, 10]: inactive on LH release
effect on LH expression [6]: increases the release and expression of LH

FNRNPFGLRF-NH2 [Eel Kp2(10)]
Emax (rat KissR-1): 260 ± 9.5%
EC50 (rat KissR-1): 56.6 ± 27.7 nM

YNLNSFGLRY [zebrafish Kp1(10), heterologous kisspeptin]
effect on lhβ expression, heterologous kisspeptins [1]: can inhibit lhβ expression; also recorded: specific in vitro inhibitory effect
effect on fshβ expression, heterologous kisspeptins [2]: no effect on fshβ
activation of human KissR-1 (human KissR-1 [7]): highly efficient
activation of KissR-2 (KissR-2; [9]): activated by both Kp1(10) and Kp2(10)
activation of KissR-3 (KissR-3; [9]): preferentially activated by Kp1(10)

ENFSSYNWNSFGLRY-NH2 [Eel Kp1(15)]
Emax (rat KissR-1): 277 ± 5.3%
EC50 (rat KissR-1): 11.8 ± 2 nM

SKFNRNPFGLRF-NH2 [Eel Kp2(12)]
Emax (rat KissR-1): 256 ± 6.7%
EC50 (rat KissR-1): 135 ± 18.9 nM

SKFNFNPFGLRF [sea bass Kp2(12), sea bass Kiss peptide]
activation of human KissR-1 (human KissR-1 [4]): can efficiently activate human KissR-1
potency for activating KissR-3 (KissR-3; sea bass, CHO cells): higher potency for activating KissR-3
in vitro FSH release (FSH release): can induce in vitro FSH release
effect on LH release (LH release; [11]): induces both lh expression and LH release
effect on lh expression (lh expression; [11]): induces both lh expression and LH release

FNYNPFGLRF [goldfish Kp2(10), homologous goldfish Kp2(10)]
effect on LH release [5, 10]: inactive on LH release

QDVSSYNLNSFGLRY [sea bass Kp1(15), sea bass Kiss peptide]
activation of human KissR-1 (human KissR-1 [4]): can efficiently activate human KissR-1
preference for KissR-2 (KissR-2; sea bass, CHO cells): preference for KissR-2
effect on LH release (LH release; [11]): no effect
effect on lh expression (lh expression; [11]): no effect

YNLNSFGLRY [sea bass Kp1(10), sea bass Kiss peptide]
activation of human KissR-1 (human KissR-1 [4]): can efficiently activate human KissR-1
